Experimental data taken from patent US10899758B2, “Inhibitors of the menin-MLL interaction” (Vitae Pharmaceuticals, LLC, priority 2016, dated 2021).

Tests used:
[1] = target: T1, menin/MLL binding (biotinylated wild-type or mutated menin and MLL-AF9 fusion protein) (Homo sapiens, UniProt O00255); assay: Assay 1 (Binding Assay): AlphaLISA menin/MLL binding; conditions: 5 nM biotinylated menin, MLL-AF9-FLAG lysate
T1 construct: biotinylated (1) wild-type menin or (2) mutated menin (described in Nature (2012) Vol. 482, pp. 542-548); fused on or other part: Biotin attached chemically (Sulfo-NHS-Biotin); no fused second protein is printed for menin
T1 sequence (O00255 1-459 limits assumed): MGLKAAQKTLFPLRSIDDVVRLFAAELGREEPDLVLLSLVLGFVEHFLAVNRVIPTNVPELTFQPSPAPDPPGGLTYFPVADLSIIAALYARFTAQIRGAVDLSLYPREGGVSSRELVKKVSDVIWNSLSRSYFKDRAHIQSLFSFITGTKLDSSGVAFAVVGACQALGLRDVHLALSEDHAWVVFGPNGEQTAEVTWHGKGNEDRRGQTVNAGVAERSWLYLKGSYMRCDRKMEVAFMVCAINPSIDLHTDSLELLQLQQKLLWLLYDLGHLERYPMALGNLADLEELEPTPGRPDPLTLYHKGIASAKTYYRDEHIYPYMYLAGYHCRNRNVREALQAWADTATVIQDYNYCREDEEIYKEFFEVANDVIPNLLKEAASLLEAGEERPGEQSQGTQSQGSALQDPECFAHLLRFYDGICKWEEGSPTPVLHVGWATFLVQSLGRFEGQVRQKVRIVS
Outline: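 Biotinylated E. coli-expressed menin (wild-type or mutant), 5 nM, incubated 30 min RT with compound and HEK293 lysate of MLL1-1,396–AF9-FLAG in pH 7.4 Tris buffer, 5% DMSO, 1 mM DTT. Anti-FLAG acceptor and streptavidin donor beads added, 60 min RT, AlphaLISA signal read. IC50 from four-parameter fit of % inhibition.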

[2] = tested on: human acute monocytic leukemia cell line MV-4-11; assay: Assay 2 (Cell Proliferation Assay), ATP quantitation (CellTiter-Glo); type: cell-based; conditions: Homo sapiens, MV4-11, 72 h, MV-4-11 cells, read-out: Assay 2 (EC50, inhibition of cell proliferation)
Experimental: Potencies of inhibitor compounds against cell proliferation was assessed against the human acute monocytic leukemia cell line MV-4-11 (ATCC® CRL-9591™) based on ATP quantitation. MV-4-11 cells or toxicity control HL-60 cells (ATCC® CCL-240™) were incubated in 96-well tissue culture plates (1.67×10^4 cells in 200 μL culture media containing 10% FBS per well) with or without test compound for 72 h at 37° C., 5% CO2. After incubation, each well was mixed by pipetting and 95 μL from each well was transferred to a well in 96-well black OptiPlate® plates (PerkinElmer). An equal volume of CellTiter-Glo® Luminescent Cell Viability Assay reagent (Promega) was added to each well, followed by mixing for 5 min on an orbital plate shaker. Luminescence was measured on a Wallac EnVision 2104 Multilabel Reader (PerkinElmer) to quantitate ATP. Percent inhibition of cell proliferation by test compounds was calculated based on uninhibited cell growth (DMSO) versus cells treated with a potent menin inhibitor at a concentration yielding at least 100×LD50.

Row | IC50 [1] | EC50 [2] | SMILES
1 | < 100 nM | 100 to 1000 nM | CC(C)N(C)C(=O)c1cc(F)ccc1-n1cc(C2CCN(CCc3ccc(S(C)(=O)=O)cc3)CC2)c2ccncc21 [Example 24, 5-fluoro-N-isopropyl-N-methyl-2-(3-(1-(4-(methylsulfonyl)phenethyl)piperidin-4-yl)-1H-pyrrolo[2,3-c]pyridin-1-yl)benzamide]
2 | < 100 nM | ≥ 1000 nM | CC(C)N(C)C(=O)c1cc(F)ccc1-n1cc(C2CCN(C[C@H]3CC[C@@H](O)CC3)CC2)c2ccncc21 [Example 27A, cis-(5-fluoro-2-(3-(1-((4-hydroxycyclohexyl)methyl)piperidin-4-yl)-1H-pyrrolo[2,3-c]pyridin-1-yl)-N-isopropyl-N-methylbenzamide)]
3 | < 100 nM | < 100 nM | CCN(C(=O)c1cc(F)ccc1-n1cc(C2CCN(Cc3ccccc3)CC2)c2ccncc21)C(C)C [Example 32, 2-(3-(1-benzylpiperidin-4-yl)-1H-pyrrolo[2,3-c]pyridin-1-yl)-N-ethyl-5-fluoro-N-isopropylbenzamide]

Second part, the compound before the results:

Row | SMILES | IC50 [1] | EC50 [2]
4 | CC(C)N(C)C(=O)c1cc(F)ccc1-n1cc(C2CCN(C[C@H]3CC[C@H](NS(C)(=O)=O)CC3)CC2)c2ccncc21 [Example 21, 5-fluoro-N-isopropyl-N-methyl-2-(3-(1-((trans-4-(methylsulfonamido)cyclohexyl)methyl)piperidin-4-yl)-1H-pyrrolo[2,3-c]pyridin-1-yl)benzamide] | < 100 nM | 100 to 1000 nM
5 | CC(C)N(C)C(=O)c1cc(F)ccc1-n1cc(C2CCN(Cc3ccc(NS(C)(=O)=O)cc3)CC2)c2ccncc21 [Example 23, 5-fluoro-N-isopropyl-N-methyl-2-(3-(1-(4-(methylsulfonamido)benzyl)piperidin-4-yl)-1H-pyrrolo[2,3-c]pyridin-1-yl)benzamide] | < 100 nM | ≥ 1000 nM
6 | CNC(=O)c1cccc(CCN2CCC(c3cn(-c4ccc(F)cc4C(=O)N(C)C(C)C)c4cnccc34)CC2)c1 [Example 26, 5-fluoro-N-isopropyl-N-methyl-2-(3-(1-(3-(methylcarbamoyl)phenethyl)piperidin-4-yl)-1H-pyrrolo[2,3-c]pyridin-1-yl)benzamide] | < 100 nM | 100 to 1000 nM
7 | CC(C)N(C)C(=O)c1cc(F)ccc1-n1cc(C2CCN(C[C@H]3CC[C@H](O)CC3)CC2)c2ccncc21 [Example 27, trans-(5-fluoro-2-(3-(1-((4-hydroxycyclohexyl)methyl)piperidin-4-yl)-1H-pyrrolo[2,3-c]pyridin-1-yl)-N-isopropyl-N-methylbenzamide)] | < 100 nM | ≥ 1000 nM
8 | CC(C)N(C)C(=O)c1cc(F)ccc1-n1cc(C2CCN(CCC3CCN(S(C)(=O)=O)CC3)CC2)c2ccncc21 [Example 28, 5-fluoro-N-isopropyl-N-methyl-2-(3-(1-(2-(1-(methylsulfonyl)piperidin-4-yl)ethyl)piperidin-4-yl)-1H-pyrrolo[2,3-c]pyridin-1-yl)benzamide] | < 100 nM | 100 to 1000 nM
9 | CC(C)N(C)C(=O)c1cc(F)ccc1-n1cc(C2CCN(CCc3ccc(C(C)(C)C#N)cc3)CC2)c2ccncc21 [Example 29, 2-(3-(1-(4-(2-cyanopropan-2-yl)phenethyl)piperidin-4-yl)-1H-pyrrolo[2,3-c]pyridin-1-yl)-5-fluoro-N-isopropyl-N-methylbenzamide] | < 100 nM | 100 to 1000 nM
10 | CC(c1ccccc1)N1CCC(c2cn(-c3ccc(F)cc3C(=O)N(C)C(C)C)c3cnccc23)CC1 (stereo not shown) [Example 30, 5-fluoro-N-isopropyl-N-methyl-2-(3-(1-(1-phenylethyl)piperidin-4-yl)-1H-pyrrolo[2,3-c]pyridin-1-yl)benzamide] | < 100 nM | 100 to 1000 nM
11 | CC(C)N(C)C(=O)c1cc(F)ccc1-n1cc(C2CCNC(Cc3ccccc3)C2)c2ccncc21 (stereo not shown) [Example 31, 2-(3-(2-benzylpiperidin-4-yl)-1H-pyrrolo[2,3-c]pyridin-1-yl)-5-fluoro-N-isopropyl-N-methylbenzamide] | < 100 nM | < 100 nM
